Measured values reported in patent US10912815B2, “Inhibitors of mitochondrial fission and methods of use thereof” (The Board of Trustees of the Leland Stanford Junior …, priority 2011, dated 2021).
Residues, ends and D or L forms follow the SMILES beside them.

Legend:
Recombinant protein Drp1 = Recombinant protein Drp1 (Homo sapiens, UniProt O00429); assay: In vitro GTPase assay, recombinant Drp1; type: biochemical; settings: for inhibition in the GTPase activity of recombinant Drp1: recombinant Drp1 25 ng, 30 min incubation with peptide, FIG. 2A
Procedure: (§1) First, mitochondrial fission inhibitor constructs were tested to determine what, if any, effects each peptide had on enzyme (GTPase) activity. Recombinant protein Drp1, Mfn1, OPA1 or dynamin-1 (25 ng) was incubated with the indicated modulator peptides for 30 min. GTPase activity was assayed in vitro using a GTPase assay kit (Innova Biosciences, Littleton, USA, or Novus Biologicals, Littleton, Colo.) according to manufacturer's instructions.

SH-SY5Y cells = settings: peptides 1 μM each, MPP+ 2 mM for 24 hours, FIG. 9E
Procedure: Cell viability of stressed SH-SY5Y cells was measured by MTT assay.
In another experiment, Human SH-SY5Y cells were treated with Drp1 P108, P109 or P110 or Fis1 P111, P112 or P113 (0.5 μM) for 15 min followed by treatment with MPP+(1 mM for 24 hrs). The cell viability was then determined by MTT test.

[1] = tested on: isolated mouse liver mitochondria with Drp1 recombinant protein; assay: Superoxide production of isolated mouse liver mitochondria after addition of recombinant Drp1; type: biochemical; settings: isolated mouse liver mitochondria 50 μg, Drp1 50 ng, P110 1 μM, p<0.05, n=3, FIG. 6C
Procedure: Mitochondrial membrane potential was also determined using TMRM (tetramethylrhodamine methylester). Fifty μg of mitochondria were incubated with recombinant Drp1 (50 ng) followed by incubation with TMRM (0.5 μM) in the presence or absence of P110 (1 μM) or NAC (2.5 mM). Fluoresence detection was performed using black 96-well plates in a fluorescence microplate reader at 560 nm excitation and 690 nm emission and potential was assessed by quenching of the fluorescent signal. The data are presented as mean±S.E. of percentage relative to control mitochondria from three independent experiments (FIG. 6B, #, p<0.05 vs. control cells; *, p<0.05; **, P<0.01 vs. MPP+- or CCCP-treated cells). Isolated mouse liver mitochondria (50 μg) were incubated with Drp1 recombinant protein (50 ng) in the presence or absence of P110 (1 μM). A kinetic change of mitochondrial superoxide production was determined by using MITOSOX™ (red mitochondrial superoxide indicator). […] Mitochondrial membrane potential of isolated mouse liver mitochondria was determined by TMRM, as described above, in the indicated groups. […] Protein levels of cytochrome c in the mitochondria were determined by western blot analysis with anti-cytochrome c antibodies in the indicated groups (insert, FIG. 6D). Total ROS production was determined by staining SH-SY5Y cells with CM2HDCFA (1 μM […] at 37° C.) in the indicated groups. […]

[2] = tested on: isolated mouse liver mitochondria with Drp1 recombinant protein; assay: Membrane potential of isolated mouse liver mitochondria incubated with Drp1 (TMRM); type: biochemical; settings: P110 1 μM, NAC 2.5 mM, FIG. 6D bottom
Procedure: Mitochondrial membrane potential was also determined using TMRM (tetramethylrhodamine methylester). Fifty μg of mitochondria were incubated with recombinant Drp1 (50 ng) followed by incubation with TMRM (0.5 μM) in the presence or absence of P110 (1 μM) or NAC (2.5 mM). Fluoresence detection was performed using black 96-well plates in a fluorescence microplate reader at 560 nm excitation and 690 nm emission and potential was assessed by quenching of the fluorescent signal. The data are presented as mean±S.E. of percentage relative to control mitochondria from three independent experiments (FIG. 6B, #, p<0.05 vs. control cells; *, p<0.05; **, P<0.01 vs. MPP+- or CCCP-treated cells). Isolated mouse liver mitochondria (50 μg) were incubated with Drp1 recombinant protein (50 ng) in the presence or absence of P110 (1 μM). A kinetic change of mitochondrial superoxide production was determined by using MITOSOX™ (red mitochondrial superoxide indicator). The data are presented as mean±S.E. of percentage relative to the value at basal level from three independent experiments (FIG. 6C, #, p<0.05 vs. control mitochondria; *, p<0.05 vs. mitochondria with the addition of Drp1). Mitochondrial membrane potential of isolated mouse liver mitochondria was determined by TMRM, as described above, in the indicated groups. NAC (2.5 mM) was used as a positive control (FIG. 6D). Protein levels of cytochrome c in the mitochondria were determined by western blot analysis with anti-cytochrome c antibodies in the indicated groups (insert, FIG. 6D). Total ROS production was determined by staining SH-SY5Y cells with CM2HDCFA (1 μM […] at 37° C.) in the indicated groups. The data are presented as mean±S.E. of percentage relative to control group from three independent experiments (FIG. 6E, *, p<0.05 vs. either MPP+ or CCCP treated-group; #, p<0.05 vs. control group).
The mitochondrial membrane potential of isolated mouse liver mitochondria was then measured in the presence or absence of P110.

Mfn1 = molecular target: T1, Mfn1 (Homo sapiens, UniProt Q8IWA4); assay: In vitro GTPase assay, recombinant Mfn1; type: biochemical; settings: p<0.05, n=3, FIG. 2F
T1 sequence (Q8IWA4 1-741): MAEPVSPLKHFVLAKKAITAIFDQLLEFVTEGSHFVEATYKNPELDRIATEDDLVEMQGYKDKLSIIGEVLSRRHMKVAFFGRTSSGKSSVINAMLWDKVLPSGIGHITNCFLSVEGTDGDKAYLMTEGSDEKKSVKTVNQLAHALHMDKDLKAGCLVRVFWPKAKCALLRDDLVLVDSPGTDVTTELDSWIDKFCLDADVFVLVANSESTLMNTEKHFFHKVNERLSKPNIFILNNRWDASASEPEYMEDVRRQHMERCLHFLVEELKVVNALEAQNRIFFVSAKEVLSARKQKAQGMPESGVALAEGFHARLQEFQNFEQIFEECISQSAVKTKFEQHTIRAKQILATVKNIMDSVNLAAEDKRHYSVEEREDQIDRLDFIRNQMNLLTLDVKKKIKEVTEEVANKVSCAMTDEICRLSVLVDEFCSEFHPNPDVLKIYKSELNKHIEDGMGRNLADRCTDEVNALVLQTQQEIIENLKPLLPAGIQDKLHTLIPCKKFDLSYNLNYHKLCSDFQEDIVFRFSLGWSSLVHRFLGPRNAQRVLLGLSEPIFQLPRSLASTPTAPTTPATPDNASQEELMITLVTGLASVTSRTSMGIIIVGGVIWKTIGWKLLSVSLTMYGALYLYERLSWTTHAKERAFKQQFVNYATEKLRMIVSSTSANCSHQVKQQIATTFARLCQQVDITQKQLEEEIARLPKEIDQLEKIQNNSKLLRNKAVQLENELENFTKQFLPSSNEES
Procedure: as §1

OPA1 = molecular target: T2, OPA1 (Homo sapiens, UniProt O60313); assay: In vitro GTPase assay, recombinant OPA1; type: biochemical; settings: p<0.05, n=3, FIG. 2F
T2 sequence (O60313 88-960): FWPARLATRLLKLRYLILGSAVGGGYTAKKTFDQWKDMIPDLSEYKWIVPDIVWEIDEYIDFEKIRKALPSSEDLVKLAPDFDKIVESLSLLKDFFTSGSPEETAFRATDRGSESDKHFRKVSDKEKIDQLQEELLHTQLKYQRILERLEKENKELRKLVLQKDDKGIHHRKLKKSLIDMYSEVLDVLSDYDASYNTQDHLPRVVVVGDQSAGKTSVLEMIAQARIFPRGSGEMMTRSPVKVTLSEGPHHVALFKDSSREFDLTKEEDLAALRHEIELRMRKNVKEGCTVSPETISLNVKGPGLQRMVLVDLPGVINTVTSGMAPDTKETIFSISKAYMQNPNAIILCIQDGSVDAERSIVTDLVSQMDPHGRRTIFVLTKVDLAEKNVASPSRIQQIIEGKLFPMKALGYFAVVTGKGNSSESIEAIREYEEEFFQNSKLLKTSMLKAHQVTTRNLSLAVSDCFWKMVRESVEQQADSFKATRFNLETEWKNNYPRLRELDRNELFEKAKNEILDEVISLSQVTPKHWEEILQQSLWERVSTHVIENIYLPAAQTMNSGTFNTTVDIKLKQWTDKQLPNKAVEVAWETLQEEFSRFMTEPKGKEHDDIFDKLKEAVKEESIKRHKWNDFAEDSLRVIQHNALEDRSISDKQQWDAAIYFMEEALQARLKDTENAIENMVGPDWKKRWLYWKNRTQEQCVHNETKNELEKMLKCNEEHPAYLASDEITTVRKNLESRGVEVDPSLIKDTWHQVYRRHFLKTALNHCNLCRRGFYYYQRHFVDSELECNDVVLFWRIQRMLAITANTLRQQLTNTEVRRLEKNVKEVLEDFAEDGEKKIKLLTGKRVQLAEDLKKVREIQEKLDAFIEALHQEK
Procedure: as §1

[3] = molecular target: T3, Drp1 association with the mitochondria (Homo sapiens, UniProt O00429); assay: Association of recombinant Drp1 (GST-Drp1) with isolated mouse liver mitochondria; type: binding; settings: peptide 1 μM, GST-Drp1, FIG. 2C
T3 construct: GST (N); host or cells: recombinant GST-Drp1 of unstated origin; mitochondria from mouse liver tissue
Procedure: If the peptides designed do represent PPI surfaces between Drp1 and Fis1, the peptides should inhibit the association of Drp1 with the mitochondria. To obtain isolated mitochondria, SH-5YSH cells were washed with cold phosphate-buffered saline (PBS) and incubated on ice in lysis buffer (250 mM sucrose, 20 mmol/L HEPES-NaOH, pH 7.5, 10 mmol/L KCl, 1.5 mmol/L MgCl2, 1 mmol/L EDTA, protease inhibitor cocktail, phosphatase inhibitor cocktail) for 30 minutes. Cells were scraped and then disrupted 10 times by repeated aspiration through a 25 gauge needle, followed by a 30 gauge needle. Mouse liver tissue was minced and ground by pestle in lysis buffer. The homogenates were spun at 800 g for 10 min at 4° C. and the resulting supernatants were spun at 10,000 g for 20 minutes at 4° C. The pellets were washed with lysis buffer and spun at 10,000 g again for 20 minutes at 4° C. The final pellets were suspended in lysis buffer containing 1% Triton X-100 and were mitochondrial-rich lysate fractions.
Mitochondria isolated from mouse liver were incubated with recombinant Drp1 (GST-Drp1). Drp1 bound to mitochondrial preparation and only P110 (1 μM) reduced this association by >60% (p<0.01, FIG. 2C); peptide carrier TAT47-57 or the other Drp1-derived peptides had no effect. The mitochondrial membrane protein VDAC was used as marker and loading control.

Dnm1 (yeast Drp1) = molecular target: T4, Dnm1 (yeast Drp1) (Saccharomyces cerevisiae, UniProt P54861); settings: yeast and mammals, by blocking Dnm1 polymerization; cited from earlier work
T4 sequence (P54861 1-757): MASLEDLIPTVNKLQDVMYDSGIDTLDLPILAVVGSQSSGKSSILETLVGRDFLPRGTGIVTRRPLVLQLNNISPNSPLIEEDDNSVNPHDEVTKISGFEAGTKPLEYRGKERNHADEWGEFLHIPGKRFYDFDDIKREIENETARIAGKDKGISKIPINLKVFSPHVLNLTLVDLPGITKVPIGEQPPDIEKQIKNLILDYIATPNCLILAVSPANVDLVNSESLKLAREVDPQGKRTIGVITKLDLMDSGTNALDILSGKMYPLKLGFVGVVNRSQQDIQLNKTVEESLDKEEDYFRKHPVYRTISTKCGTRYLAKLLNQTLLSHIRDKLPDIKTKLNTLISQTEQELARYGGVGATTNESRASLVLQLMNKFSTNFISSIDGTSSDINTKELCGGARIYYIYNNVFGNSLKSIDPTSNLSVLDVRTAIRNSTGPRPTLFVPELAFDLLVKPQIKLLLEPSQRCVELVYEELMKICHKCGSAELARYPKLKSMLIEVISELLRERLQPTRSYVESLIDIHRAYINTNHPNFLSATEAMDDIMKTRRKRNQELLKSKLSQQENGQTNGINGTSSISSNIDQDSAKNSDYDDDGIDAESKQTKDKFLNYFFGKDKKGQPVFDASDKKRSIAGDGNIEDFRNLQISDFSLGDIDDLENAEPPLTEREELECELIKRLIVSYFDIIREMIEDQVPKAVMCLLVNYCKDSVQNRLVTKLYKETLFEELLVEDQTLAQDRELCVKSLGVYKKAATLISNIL

Chain of Recombinant protein Drp1 (O00429 1-710 isoform O00429-3): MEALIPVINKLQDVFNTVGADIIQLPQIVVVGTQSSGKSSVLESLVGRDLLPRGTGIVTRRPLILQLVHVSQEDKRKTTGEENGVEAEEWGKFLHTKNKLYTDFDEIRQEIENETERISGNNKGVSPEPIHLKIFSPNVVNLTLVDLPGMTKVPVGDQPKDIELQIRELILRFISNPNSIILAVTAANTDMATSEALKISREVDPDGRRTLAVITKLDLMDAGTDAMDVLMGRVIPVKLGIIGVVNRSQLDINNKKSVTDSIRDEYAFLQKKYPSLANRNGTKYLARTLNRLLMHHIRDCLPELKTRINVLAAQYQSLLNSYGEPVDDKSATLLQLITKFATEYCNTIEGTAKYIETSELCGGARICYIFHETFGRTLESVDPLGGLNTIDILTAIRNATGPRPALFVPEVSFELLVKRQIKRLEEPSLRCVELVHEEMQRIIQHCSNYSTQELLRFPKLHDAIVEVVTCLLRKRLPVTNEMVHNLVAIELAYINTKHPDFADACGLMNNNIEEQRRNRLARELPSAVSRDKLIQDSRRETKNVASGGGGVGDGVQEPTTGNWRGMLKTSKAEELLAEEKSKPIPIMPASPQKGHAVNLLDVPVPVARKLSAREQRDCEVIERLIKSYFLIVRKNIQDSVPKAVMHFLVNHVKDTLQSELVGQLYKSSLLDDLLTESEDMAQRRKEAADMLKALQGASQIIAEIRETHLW
T3 sequence (O00429 1-710 isoform O00429-3): as above

## N=C(N)NCCC[C@H](NC(=O)[C@H](CCCCN)NC(=O)[C@H](CCCCN)NC(=O)[C@H](CCCNC(=N)N)NC(=O)[C@H](CCCNC(=N)N)NC(=O)[C@H](CCC(N)=O)NC(=O)[C@H](CCCNC(=N)N)NC(=O)[C@H](CCCNC(=N)N)NC(=O)[C@@H](N)CCCNC(=N)N)C(=O)NCC(=O)N[C@@H](Cc1ccc(O)cc1)C(=O)NCC(=O)NCC(=O)N[C@@H](CCCCN)C(=O)NCC(=O)N[C@@H](CO)C(=O)N[C@@H](CCCCN)C(=O)N[C@@H](CCC(=O)O)C(=O)N[C@@H](CCC(=O)O)C(=O)N[C@@H](CCC(N)=O)C(=O)N[C@@H](CCCNC(=N)N)C(=O)N[C@@H](CC(=O)O)C(N)=O [P112] (H-RRRQRRKKRGYGGKGSKEEQRD-NH2)
Recombinant protein Drp1; in vitro GTPase assay, n=3, first statement of b271
  specifically inhibited Drp1 GTPase activity: 50%
Recombinant protein Drp1
  inhibition in the GTPase activity of recombinant Drp1: no significant effect

## RRRQRRKKRGYGGELLPKG (RRRQRRKKRGYGGELLPKGS) [P113]
Recombinant protein Drp1
  inhibition in the GTPase activity of recombinant Drp1: no significant effect
SH-SY5Y cells
  cell viability (MTT): no significant effect

## Drp1 K38A: dominant negative mutant of Drp1, which inhibits Drp1 GTPase activity and fission activity; positive control
[1]
  Drp1-induced ROS (superoxide) elevation in the mitochondria: abolished
[2]
  mitochondrial membrane potential (MMP) of isolated mitochondria after Drp1 addition: similar
Recombinant protein Drp1
  inhibition in the GTPase activity of recombinant Drp1: ~70%

## CC(=O)N[C@@H](CS)C(=O)O [NAC, N-Acetyl cysteine, reference compound]
[2]
  mitochondrial membrane potential (MMP) of isolated mitochondria after Drp1 addition: prevented the dissipated MMP

## CC(C)C[C@H](NC(=O)[C@H](CCCCN)NC(=O)CNC(=O)CNC(=O)[C@H](Cc1ccc(O)cc1)NC(=O)CNC(=O)[C@H](CCCNC(=N)N)NC(=O)[C@H](CCCCN)NC(=O)[C@H](CCCCN)NC(=O)[C@H](CCCNC(=N)N)NC(=O)[C@H](CCCNC(=N)N)NC(=O)[C@H](CCC(N)=O)NC(=O)[C@H](CCCNC(=N)N)NC(=O)[C@H](CCCNC(=N)N)NC(=O)[C@@H](N)CCCNC(=N)N)C(=O)N[C@@H](CO)C(=O)N[C@@H](C)C(=O)N[C@@H](CCCNC(=N)N)C(=O)N[C@@H](CCC(=O)O)C(=O)N[C@@H](CCC(N)=O)C(=O)N[C@@H](CCCNC(=N)N)C(=O)N[C@@H](CC(=O)O)C(N)=O [P109] (H-RRRQRRKKRGYGGKLSAREQRD-NH2)
Mfn1
  GTPase activity of MFN1 (increased): 229%±10
Recombinant protein Drp1
  inhibition in the GTPase activity of recombinant Drp1: 40%
OPA1
  GTPase activity of OPA1 (increased): 177%±13

## TAT47-57: cell permeating TAT protein-derived peptide carrier, used alone as control peptide
[3]
  reduction of association of Drp1 with mitochondrial preparation: no effect

## COc1cc(-n2c(=S)[nH]c3ccccc3c2=O)c(Cl)cc1Cl [Mdivi-1]
Dnm1 (yeast Drp1)
  mitochondrial division: inhibits mitochondrial division
